Measured values from patent US10925858B2, “S-nitrosoglutathione (GSNO) and GSNO reductase inhibitors for use in therapy” (MUSC FOUNDATION FOR RESEARCH DEVELOPMENT, priority 2017, dated 2021).

System: passive EAE disease
Assay: Adoptive transfer model of EAE (passive EAE), clinical disease
Type: in vivo, SJL mice
Experimental: EAE disease was induced in 8- to 10-week-old female SJL mice by immunization with an emulsion (100 μl, subcutaneous) of proteolipid protein peptide (PLP139-151; Peptide International. Louisville, Ky.) and 200 μg of killed Mycobacterium tuberculosis H37Ra (Difco, Detroit, Mich., USA) followed by booster on day 7 as described previously (Nath et al., 2010). The mice additionally received pertussis toxin (Sigma-Aldrich, St. Louis, Mo.; 200 ng/300 μl PBS, intravenous) on day 0 and 3 post-immunization. On the day of immunization, one group of mice received 100 μl phosphate buffered saline (PBS) and the second group of mice received daily GSNO (1.0 mg/kg, 100 μl/PBS) via oral route GSNO was purchased from World Precision Instruments (Sarasota, Fla.) and its concentration was adjusted spectrophotometrically at 334 nm. Individual animals were observed daily for clinical disease severity by an investigator, blinded to experimental treatments, on a 0-5 scale as follows: 0=no abnormality; 1=piloerection, sluggish, 2=limp tail; 2.5=hind limb weakness (legs slip through cage top); 3=hind limb paralysis, 4=hind and forelimb paralysis; and 5=moribund.
At the peak of EAE disease, the mice were sacrificed and CD4+ T cells were purified from draining lymph nodes (DLN) and spleens by CD4+ T cell isolation kit (Miltenyi, Auburn. Calif.). The purified T cells (2.5×10^6 cells/ml) were cultured in 96-well round-bottom microculture plates (Falcon Labware, Oxnard, Calif.) in RPMI-complete media containing RPMI 1640 (Life Technologies, Gaithersburg, Md.), 10% FBS, and 100 μg/ml streptomycin and penicillin (Atlanta Biologicals Norcross, Ga.), 1 mM glutamine, 1 mM nonessential amino acids, and 50 μM 2-mercaptoethanol (Sigma-Aldrich). For skewing of different CD4+ T cell subsets and their expansion, the isolated CD4+ T cells were stimulated with PLP139-151 (5 μg/ml) with IL-2 (10 ng/ml) for TH0, IL-2 (10 ng/ml), rhIL-12p35 (10 ng/ml), and anti-IL-4 (1 μg/ml) for TH1, or recombinant mouse IL-12/23p40 homodimer (10 ng/ml), anti-IFN-γ 1 (μg/ml), anti-IL-4 (1 μg/ml) for TO 17. All cytokines and antibodies were purchased from BD Biosciences (San Diego, Calif.). Following stimulation, the cells were harvested for adoptive transfer of EAE disease and the culture supernatants were collected for analysis of IFN-γ, IL-17, and IL-10 expression by ELISA (Biolegend Cat #430802, 432505, and 431411; San Diego, Calif.).
(20-30×10^6 T cells in 300 μl RPMI media per mouse) were injected to naive SJL female mice (8-10 week old) via intraperitoneal route. The recipient mice were also given two doses of pertussis toxin (200 ng/300 μl of PBS/i.p.) on day 0 and 2 of post immunization. Clinical EAE disease was measured as describe above.

[1] = daily GSNO treatment of recipient mice

N[C@@H](CCC(=O)N[C@@H](CSN=O)C(=O)NCC(=O)O)C(=O)O [GSNO, S-nitrosoglutathione]
passive EAE disease severity, recipients of T cells from GSNO treated EAE mice treated with GSNO during the disease [1]: further reduced
passive EAE disease, recipients of T cells from untreated EAE mice treated with GSNO during the disease [1]: reduced the EAE disease
passive EAE disease after transfer of T cells from GSNO treated EAE mice (recipients without GSNO, vs T cells from untreated EAE mice): significantly delayed and milder disease
passive EAE disease after transfer of TH1 and TH17 skewed T cells from GSNO treated EAE mice (vs T cells from untreated EAE mice): significantly milder EAE disease
